How the values were obtained:
Assay type in all cases: biochemical
collagenase (MMP-1) = molecular target: T1, collagenase (MMP-1) (Homo sapiens, UniProt P03956); experiment: MMP-1 enzyme inhibition assay (coumarin-labelled peptide substrate); details: read-out: percentage inhibition MMP1
T1 sequence (P03956 100-469): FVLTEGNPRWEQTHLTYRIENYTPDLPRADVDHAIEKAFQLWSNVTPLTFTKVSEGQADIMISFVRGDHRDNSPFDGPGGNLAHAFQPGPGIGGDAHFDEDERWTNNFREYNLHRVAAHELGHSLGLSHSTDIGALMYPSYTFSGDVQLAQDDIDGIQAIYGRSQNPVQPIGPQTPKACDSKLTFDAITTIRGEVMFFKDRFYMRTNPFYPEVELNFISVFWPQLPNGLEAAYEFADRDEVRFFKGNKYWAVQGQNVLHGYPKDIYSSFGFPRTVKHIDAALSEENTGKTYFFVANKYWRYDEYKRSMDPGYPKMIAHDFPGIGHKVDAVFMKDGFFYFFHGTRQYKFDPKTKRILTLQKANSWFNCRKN
Procedure: (§1) Compounds of the invention were tested to assess their activities as inhibitors of MMP-1, MMP-2, MMP-9, MMP-14, MMP-12 and TACE. MMP-9 Assay Protocol
(§2) Compounds of the invention were tested for inhibitory activity against 92 kDa gelatinase (MMP-9) in an assay using a coumarin-labeled peptide substrate, (7-methoxycoumarin-4-yl)acetyl-Pro-Leu-Gly-Leu-(3-[2,4-dinitrophenyl]-L-2,3diaminopropionyl)-Ala-Arg-NH2 (McaPLGLDpaAR) (Knight et al, FEBS Lett. 1992; 263-266).
(§3) Stock solutions were made up as follows: Assay Butter: 100 mM Tris-HCl pH 7.6 containing 100 mM NaCl, 10 mM CaCl2, and 0.05% Brij 35.
(§4) Substrate: 0.4 mM McaPLGLDpaAR (from Bachem) (0.437 mg/ml) stock solution in 100% DMSO (stored at −20° C.). Dilute to 8 μM in assay butter.
(§5) Enzyme: Recombinant human 92 kDa gelatinase (MMP-9; APMA (4-aminophenyl mercuric acetate)-activated if necessary) appropriately diluted in assay butter.
(§6) Test Compounds were prepared initially as 10 mM compound solution in 100% DMSO, diluted to 1 mM in 100% DMSO, then serially diluted 3-fold in 100% DMSO across columns 1-10 of a 96-well microtitre plate Assay concentration range, 100 μM (column 1) to 5.1 nM (column 10).
(§7) The assay was performed in a total volume of 100 μL per well in 96-well microtitre plates. Activated enzyme (20 μL) was added to the wells followed by 20 μL of assay butter. Appropriate concentrations of test compounds dissolved in 10 μL of DMSO were then added followed by 50 μL of McaPLGLDpaAR (8 μM, prepared by dilution of DMSO stock in assay butter). For each as say ten concentrations of test compound were examined in duplicate. Control wells lack either enzyme or test compound. The reactions were incubated at 37° C. for 2 hours. The fluorescence at 405 nm was measured immediately with an SLT Fluostar fluorometer (SL T Labinstruments GmbH, Grödig, Austria) using 320 nm excitation, without stopping the reaction.
(§8) The effect of the test compound was determined from the dose response curve generated by the 10 duplicate concentrations of inhibitor. The IC50 (the concentration of compound required to give a 50% decrease in enzyme activity) was obtained by fitting data to the equation, Y=a+((b−a)/(1+(c/X)^d)). (Y=inhibition achieved for a particular dose; X=the dose in nM; a=minimum y or zero % inhibition; b=maximum y or 100% inhibition; c=is the IC50; d=is the slope). The result was rounded to one significant figure.
(§9) Compounds of the invention were tested for inhibitory activity against collagenase (MMP-1) in an assay using a coumarin-labelled peptide substrate, (7-methoxycoumarin-4-yl)acetyl-Pro-Leu-Gly-Leu-(3-[2,4-dinitrophenyl]-L-2,3diaminopropionyl)-Ala-Arg-NH2 (Mca PLGLDpaAR) (Knight et al, 1992, above). The protocol for this assay was as described for the MMP-9 assay above.

gelatinase A (MMP-2) = molecular target: T2, gelatinase A (MMP-2) (Homo sapiens, UniProt P08253); experiment: MMP-2 enzyme inhibition assay (coumarin-labelled peptide substrate); details: read-out: IC50 MMP2
T2 sequence (P08253 110-660): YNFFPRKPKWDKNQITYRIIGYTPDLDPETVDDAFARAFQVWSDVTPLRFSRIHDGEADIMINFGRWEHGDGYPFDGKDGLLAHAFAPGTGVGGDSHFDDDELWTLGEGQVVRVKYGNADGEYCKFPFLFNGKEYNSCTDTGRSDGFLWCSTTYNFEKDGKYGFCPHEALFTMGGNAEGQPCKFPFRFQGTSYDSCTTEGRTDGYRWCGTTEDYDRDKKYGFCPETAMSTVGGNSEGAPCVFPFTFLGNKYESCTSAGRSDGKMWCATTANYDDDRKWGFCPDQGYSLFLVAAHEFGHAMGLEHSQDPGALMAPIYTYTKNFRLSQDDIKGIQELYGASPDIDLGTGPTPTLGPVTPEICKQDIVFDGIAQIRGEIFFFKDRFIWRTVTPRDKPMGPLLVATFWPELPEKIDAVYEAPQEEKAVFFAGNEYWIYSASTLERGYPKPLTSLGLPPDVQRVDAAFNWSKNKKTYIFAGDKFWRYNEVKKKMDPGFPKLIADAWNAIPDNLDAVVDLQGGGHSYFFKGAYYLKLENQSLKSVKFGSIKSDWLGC
Procedure: Compounds of the invention were tested to assess their activities as inhibitors of MMP-1, MMP-2, MMP-9, MMP-14, MMP-12 and TACE. MMP-9 Assay Protocol […]
as §3
Substrate: 0.4 mM McaPLGLDpaAR (from Bachem) (0.437 mg/ml) stock solution in 100% DMSO (stored at −20° C.). Dilute to 8 μM in assay butter. […]
as §6, §7, §8
as §9, with “gelatinase A (MMP-2)” for “collagenase (MMP-1)”

MMP-14 = MMP-14 (Homo sapiens, UniProt P50281); experiment: MMP-14 enzyme inhibition assay (coumarin-labelled peptide substrate); details: read-out: percentage inhibition MMP14
Procedure: as §1, §2, §3, §4, §5, §6, §7, §8
as §9, with “MMP-14” for “collagenase (MMP-1)”, “PLGLD paAR)” for “PLGLDpaAR)”

Compound | inhibition at 5 µM (collagenase (MMP-1)) [%] | IC50 (gelatinase A (MMP-2)) [nM] | inhibition at 5 µM (MMP-14) [%] | inhibition at 0.1 µM (MMP-14) [%] | inhibition at 0.1 µM (collagenase (MMP-1); @ 0.1 μM) [%]
O=CN(O)C(CCC(F)(F)F)CS(=O)(=O)N1CCc2ccc(Cl)cc2C1 (stereo not drawn) [Example 76, N-(1-{[(7-chloro-3,4-dihydroisoquinolin-2(1H)-yl)-sulfonyl]methyl}-4,4,4-trifluorobutyl)-N-hydroxyformamide] | 43 | 82 | 59 | – | –
CCC(CC)C(CS(=O)(=O)N1CCc2ccc(Br)cc2C1)N(O)C=O (stereo not drawn) [Example 36, N-(1-{[(7-bromo-3,4-dihydroisoquinolin-2(1H)-yl)sulfonyl]-methyl}-2-ethylbutyl)-N-hydroxyformamide] | 41 | 41 | 75 | 3 | –
CC(C)(C)CC(CS(=O)(=O)N1CCc2cc(Cl)c(Cl)cc2C1)N(O)C=O (stereo not drawn) [Example 42, N-(1-{[(6,7-dichloro-3,4-dihydroisoquinolin-2(1H)-yl)-sulfonyl]methyl}-3,3-dimethylbutyl)-N-hydroxyformamide] | 29 | 31 | 88 | 15 | –
COc1ccc(C(CS(=O)(=O)N2CCc3ccccc3C2)N(O)C=O)cn1 (stereo not drawn) [Example 13, N-[2-(3,4-dihydroisoquinolin-2(1H)-ylsulfonyl)-1-(6-methoxypyridin-3-yl)ethyl]-N-hydroxyformamide] | 16 | > 5000 | 64 | – | –
CC(C)(CS(=O)(=O)N1CCc2ccc(Br)cc2C1)N(O)C=O [Example 56, N-{2-[(7-bromo-3,4-dihydroisoquinolin-2(1H)-yl)sulfonyl]-1,1-dimethylethyl}-N-hydroxyformamide] | 34 | 190 | 48 | – | –
CC1(C)OC[C@H](C(CS(=O)(=O)N2CCc3ccc(C(F)(F)F)cc3C2)N(O)C=O)O1 (stereo partly drawn) [Example 28, N-(1-[(4S)-2,2-dimethyl-1,3-dioxolan-4-yl]-2-{[7-(trifluoro-methyl)-3,4-dihydroisoquinolin-2(1H)-yl]sulfonyl}ethyl)-N-hydroxyformamide] | 18 | 45 | 62 | – | –
O=CN(O)C(CS(=O)(=O)N1CCc2ccc(C(F)(F)F)cc2C1)C1CCCC1 (stereo not drawn) [Example 82, N-(1-cyclopentyl-2-{[7-(trifluoromethyl)-3,4-dihydro-isoquinolin-2(1H)-yl]sulfonyl}ethyl)-N-hydroxyformamide] | 10 | 348 | 20 | – | –
O=CN(O)C1(CS(=O)(=O)N2CCc3ccc(Cl)cc3C2)CCCC1 [Example 62, N-(1-{[(7-chloro-3,4-dihydroisoquinolin-2(1H)-yl)-sulfonyl]methyl}cyclopentyl)-N-hydroxyformamide] | 52 | 293 | 75 | – | –
CC(C)CC(CS(=O)(=O)N1CCc2ccc(Br)cc2C1)N(O)C=O (stereo not drawn) [Example 55, N-(1-{[(7-bromo-3,4-dihydroisoquinolin-2(1H)-yl)-sulfonyl]methyl}-3-methylbutyl)-N-hydroxyformamide] | 69 | 24 | 86 | 19 | 7
CC(C)c1ccc2c(c1)CCN(S(=O)(=O)C[C@H]([C@H]1CCCO1)N(O)C=O)C2 [Example 45, N-hydroxy-N-{(1S)-2-[(6-isopropyl-3,4-dihydroisoquinolin-2(1H)-yl)sulfonyl]-1-[(2R)-tetrahydrofuran-2-yl]ethyl}formamide] | 2 | 25 | 92 | – | –
O=CN(O)C(CS(=O)(=O)N1CCc2ccc(-c3ccncc3)cc2C1)C1CCCC1 (stereo not drawn) [Example 79, N-{1-cyclopentyl-2-[(7-pyridin-4-yl-3,4-dihydroisoquinolin-2(1H)-yl)sulfonyl]ethyl}-N-hydroxyformamide] | 0 | 67 | 72 | 19 | –
CC(C)c1ccc2c(c1)CCN(S(=O)(=O)CC([C@H]1COC(C)(C)O1)N(O)C=O)C2 (stereo partly drawn) [Example 18, N-{1-[(4S)-2,2-dimethyl-1,3-dioxolan-4-yl]-2-[(6-isopropyl-3,4-dihydroisoquinolin-2(1H)-yl)sulfonyl]ethyl}-N-hydroxyformamide] | 9 | 5 | 95 | 13 | –
O=CN(O)C(CS(=O)(=O)N1Cc2ccccc2C1)C1CC1 (stereo not drawn) [Example 72, N-[1-cyclopropyl-2-(1,3-dihydro-2H-isoindol-2-ylsulfonyl)-ethyl]-N-hydroxyformamide] | 75 | 510 | 63 | – | –
O=CN(O)C(CS(=O)(=O)N1CCc2ccc(-c3ccccc3)cc2C1)C1CCCC1 (stereo not drawn) [Example 69, N-{1-cyclopentyl-2-[(7-phenyl-3,4-dihydroisoquinolin-2(1H)-yl)sulfonyl]ethyl}-N-hydroxyformamide] | 4 | 527 | 63 | – | –
O=CN(O)C(COc1ccccc1)CS(=O)(=O)N1CCc2ccc(Cl)cc2C1 (stereo not drawn) [Example 61, N-[2-[(7-chloro-3,4-dihydroisoquinolin-2(1H)-yl)sulfonyl]-1-(phenoxymethyl)ethyl]-N-hydroxyformamide] | 22 | 38 | 43 | – | –
CCCOc1ccc2c(c1)CN(S(=O)(=O)CC(CC(C)(C)C)N(O)C=O)CC2 (stereo not drawn) [Example 40, N-(3,3-dimethyl-1-{[(7-propoxy-3,4-dihydroisoquinolin-2(1H)-yl)sulfonyl]methyl}butyl)-N-hydroxyformamide] | 2 | 77 | 54 | – | –

Source: patent US7879876B2, “Sulfonamide derivatives and use thereof for the modulation of metalloproteinases” (Merck Serono SA, priority 2005, dated 2011)
